Data as given in paper PMC11678245, “The Molecular Basis of the Intrinsic and Acquired Resistance to Azole Antifungals in Aspergillus fumigatus” (Journal of Fungi, 2024).
pKd: −log10 of the molar value. Values joined by “and” are separate entries in the source; they are usually repeats but may differ in a detail not shown here. Equal entries are not always repeated. “Also recorded” adds a separate entry of the source.

Key:
AfCYP51A-6×His = AfCYP51A-6×His (Aspergillus fumigatus, UniProt Q4WNT5); test: Type I binding of substrates (difference spectra); design: Full-length codon-optimised AfCYP51A-6×His and AfCYP51B-6×His were constitutively co-expressed; made in house; conditions: AfCYP51A-6×His 5 µM, concentrations up to 300 μM
Description: (§1) The concentration of AfCYP51A and AfCYP51B, purified using Ni-NTA affinity chromatography and used for the spectrophotometric type I and type II binding assays, was calculated using an extinction co-efficient of λ417nm = 117 mM^−1 cm^−1 applied to the absolute absorption spectrum of the preparations. In addition, the amount of “active” cytochrome P450 enzyme was determined using the carbon monoxide (CO) binding spectra of these preparations.
Type I binding of substrates lanosterol and eburicol in the active site of the Ni-NTA affinity-purified AfCYP51A and AfCYP51B enzymes was assessed using the method of Warrilow et al.. […] Substrate saturation curves were constructed by plotting the maximal ∆Apeak−trough obtained between 350 and 500 nm, allowing for a change in the reaction volume during the titration. The substrate binding constant (KS) was calculated by nonlinear regression (Levenberg–Marquardt algorithm) applied to the Michaelis–Menten equation or the Hill equation. GraphPad Prism 9.2.0 software was used to identify the best fit for the data.

AfCYP51B-6×His = target: T1, AfCYP51B-6×His (Aspergillus fumigatus, UniProt E9QY26); test: Type I binding of substrates (difference spectra)
T1 sequence (E9QY26 1-524): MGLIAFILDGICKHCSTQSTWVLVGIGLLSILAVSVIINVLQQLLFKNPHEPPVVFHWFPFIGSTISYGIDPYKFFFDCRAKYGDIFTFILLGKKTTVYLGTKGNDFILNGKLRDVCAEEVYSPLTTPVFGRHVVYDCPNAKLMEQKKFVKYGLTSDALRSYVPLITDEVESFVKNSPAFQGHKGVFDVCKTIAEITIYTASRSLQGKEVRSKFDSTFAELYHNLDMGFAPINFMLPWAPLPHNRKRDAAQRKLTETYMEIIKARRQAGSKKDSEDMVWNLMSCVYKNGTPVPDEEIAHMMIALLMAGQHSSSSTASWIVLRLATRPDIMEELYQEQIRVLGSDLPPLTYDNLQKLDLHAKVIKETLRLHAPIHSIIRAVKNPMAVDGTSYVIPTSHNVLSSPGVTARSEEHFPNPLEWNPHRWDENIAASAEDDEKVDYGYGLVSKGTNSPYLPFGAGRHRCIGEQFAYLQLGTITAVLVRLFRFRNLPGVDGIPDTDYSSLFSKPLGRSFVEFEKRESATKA
Description: as §1
Type I binding of substrates lanosterol and eburicol in the active site of the Ni-NTA affinity-purified AfCYP51A and AfCYP51B enzymes was assessed using the method of Warrilow et al.. Titrations of 5 μM AfCYP51-6×His protein with lanosterol or eburicol (1 to 250 μM) were measured using a Cary 300 UV–Visible Spectrophotometer (Agilent Technologies, Santa Clara, CA, USA). Substrate saturation curves were constructed by plotting the maximal ∆Apeak−trough obtained between 350 and 500 nm, allowing for a change in the reaction volume during the titration. The substrate binding constant (KS) was calculated by nonlinear regression (Levenberg–Marquardt algorithm) applied to the Michaelis–Menten equation or the Hill equation. GraphPad Prism 9.2.0 software was used to identify the best fit for the data.

Sequence of AfCYP51A-6×His (Q4WNT5 whole entry): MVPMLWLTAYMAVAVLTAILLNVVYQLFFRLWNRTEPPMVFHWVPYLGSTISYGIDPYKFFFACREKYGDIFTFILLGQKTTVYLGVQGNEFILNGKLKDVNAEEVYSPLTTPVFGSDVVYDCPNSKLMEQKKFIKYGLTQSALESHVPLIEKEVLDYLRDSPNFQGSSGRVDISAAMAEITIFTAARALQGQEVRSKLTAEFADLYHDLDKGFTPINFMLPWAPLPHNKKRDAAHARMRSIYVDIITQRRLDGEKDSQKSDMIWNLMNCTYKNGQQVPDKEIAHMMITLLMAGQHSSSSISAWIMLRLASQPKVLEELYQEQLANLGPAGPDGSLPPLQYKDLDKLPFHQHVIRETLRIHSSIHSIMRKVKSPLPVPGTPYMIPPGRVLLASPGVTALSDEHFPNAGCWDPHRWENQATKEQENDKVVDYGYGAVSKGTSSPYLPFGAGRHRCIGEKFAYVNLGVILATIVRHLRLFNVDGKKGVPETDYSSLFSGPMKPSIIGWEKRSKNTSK

CC(C)=CCC[C@@H](C)[C@H]1CC[C@@]2(C)C3=C(CC[C@]12C)[C@@]1(C)CC[C@H](O)C(C)(C)[C@@H]1CC3 [Lanosterol, lanosterol]
type I binding response (AfCYP51A-6×His): did not give the expected type I binding response; also recorded: did not give a type I binding response
type I binding spectrum peak (AfCYP51B-6×His; AfCYP51B-6×His): 386 nm
type I binding spectrum trough (AfCYP51B-6×His; AfCYP51B-6×His): 423 nm
ΔAmax (type I binding) (AfCYP51B-6×His; AfCYP51B-6×His 5 μM, Michaelis–Menten equation): 0.22 and 0.219
pKd (AfCYP51B-6×His; AfCYP51B-6×His 5 μM, type I binding, Michaelis–Menten equation, read-out: Ks): 3.32
affinity of AfCYP51B for eburicol versus lanosterol (AfCYP51B-6×His; ratio of Ks values): approximately 6 fold
